For the assay, the system named is P. falciparum 3D7 growth, pLDH absorbance. Put plainly: P. falciparum 3D7 growth inhibition, dose response, strain 3D7 (AID 2305).

In the case of `CC[C@H]1CN2CC[C@H]1C[C@H]2C(O)c1cc(OC)nc2ccccc12` (some centres not stated), the IC50 worked out at 140 nM.
For `CN1CCC(OC(=O)c2cc3cc(-c4ccccc4)ccc3n2S(=O)(=O)c2ccccc2)CC1`, the IC50 was 1090 nM.
As for `CN(CCN)Cc1ccc(-c2ccc(-c3nc4ccc(C(F)(F)F)cc4[nH]3)s2)cc1`, the IC50 was determined as 610 nM.
In turn, `CCCCCN1CCC(NC(=O)c2ccc(C(=O)Nc3ccc(C(C)C)cc3)cc2)CC1` came in with an IC50 of 850 nM.
Molecule `Cc1cccc(CNc2nc(C)cc(N[C@@H](CC(C)C)C(=O)NCc3cccc(F)c3)n2)c1` came in with an IC50 of 1180 nM.
`Nc1nc(N)c2c(Cl)c(N3CCOCC3)ccc2n1` gave an IC50 of 80 nM.
With `O=C(c1cc(C(F)(F)F)cc(C(F)(F)F)c1)N1CC[C@H](CCN2CCC3(CC2)C(=O)NCN3c2ccccc2)C[C@H]1Cc1ccc(Cl)c(Cl)c1` the figure was 660 nM; with `COc1cccc(-c2ccc3ccnc(N)c3c2)c1`, 410 nM; with `O=C(NCCCCCN1CCC(c2c[nH]c3ccccc23)CC1)Nc1ccc(Br)cc1`, 920 nM.
Turning to `CC(C)(C)OC(=O)[C@H](CC(N)=O)NC(=O)c1ccc(-c2ccc(-c3nc4ccc(C(F)(F)F)cc4[nH]3)s2)cc1`, the IC50 came to 270 nM.
With `O=C(NC1CCCCC1)c1csc(C2CCCN(C(=O)c3ccc(O)c(-c4cccc(C(F)(F)F)c4)c3)C2)n1` (configuration not stated) the figure was 1670 nM.
With `Cc1cc(NC2CCN(CC3CCCCC3)CC2)nc(Nc2ccccc2Cl)n1` the figure was 640 nM.
`Fc1ccc2nc(-c3cccc(-c4cccc(CNCc5ccccc5)c4)c3)[nH]c2c1` came in with an IC50 of 280 nM.
With `CCc1ccc(-c2nc3cc(NC(=O)c4cc([N+](=O)[O-])cc([N+](=O)[O-])c4)ccc3o2)cc1` the figure was 930 nM; with `CCCCC(=O)NC(c1cccs1)c1cc(Cl)c2cccnc2c1O` (configuration not stated), 380 nM.
Take `COC(=O)c1ccc(CC(C)NCC(O)c2cc(Cl)c(N)c(Cl)c2)cc1` (configuration not stated): the half-inhibitory concentration (IC50) was found to be 880 nM.
With `CCC[C@@H]([C@@H](CC(C)C)C(=O)N[C@@H](CCCNc1nccc(C(F)(F)F)n1)C(=O)Nc1nccs1)N(O)C=O` the figure was 370 nM; with `CCCN1CCN(c2cc(S(=O)(=O)Nc3ccc(C(=O)NCc4cccc(C(F)(F)F)c4)cc3)ccc2OC)CC1`, 1010 nM.
Molecule `O=c1c2ccc(Sc3ccccn3)cc2n(-c2ccccc2)c2cc(Sc3ccccn3)ccc12` registered an IC50 of 200 nM.
The molecule `O=C(Nc1ccc(OC2CCN(Cc3ccsc3)CC2)c(Cl)c1)c1ccc(F)cc1` registered an IC50 of 650 nM. This IC50 lies about 3.2-fold higher than the previous one.
With `COc1ccc(NC(=O)Nc2cc(C)nc3cccnc23)cc1Cn1ccnc1` the figure was 740 nM; with `O=C(Nc1ccccc1)N(Cc1ccccc1-c1cccc(CNCCc2ccccc2)c1)C1CCN(Cc2ccccc2)CC1`, 180 nM.
`Nc1nc(N)c2c(ccc3c2ncn3Cc2ccccc2)n1` came in with a half-inhibitory concentration (IC50) of 90 nM.
On to `N#Cc1ccc(CN2CCC(Oc3ccc(NC(=O)c4cccs4)cc3Cl)C2)cc1` (configuration not stated), for which the IC50 turned out to be 400 nM.
With `CNCCNC(=O)C1Cc2c([nH]c3c(C)cccc23)C(c2ccc(Cl)c(Cl)c2)N1` (configuration not stated), the concentration for half-maximal inhibition (IC50) was found to be 720 nM.
Molecule `Cc1cc(CNCCCCCNCc2ccc(Cl)cc2)ccc1O` yielded an IC50 of 710 nM.
Then `CN(C)C(=O)c1ccc(CN(Cc2ccc3c(c2)OCCO3)Cc2ccc3c(c2)OCO3)cc1`, with 180 nM; and `CN(C)Cc1ccc(-c2cc3c(Nc4ccc(OCc5cccc(F)c5)c(Cl)c4)ncnc3s2)[nH]1`, with 820 nM; and `Cc1cccc2[nH]c(-c3ccc(-c4ccc(CN5CCCC5CN)cc4)cc3)nc12` (configuration not stated), with 810 nM.
As to `NC(N)=NN=Cc1ccc2c(ccc3ccccc32)c1`, the IC50 came to 630 nM.
Then `CCN(CC)CCCCOc1ccc2c(c1)C(=O)c1cc(OCCCCN(CC)CC)ccc1-2`, with 760 nM.
`CC(C)CCNc1nc(NCCCc2ccccc2)c2cc(O)ccc2n1`: the half-inhibitory concentration (IC50) amounted to 170 nM.
With `CCNc1cc(C(=O)N[C@@H](Cc2ccccc2)[C@H](O)CNCCc2ccccc2)cc(N2CCCCS2(=O)=O)c1` the figure was 940 nM.
`O=C(/C=C/c1ccc(Cl)c(Cl)c1)NCCCCCCN1CCCN(C(=O)Nc2ccc(F)c(Cl)c2)CC1` returned an IC50 of 740 nM. The IC50 values of the last two molecules are within 1.5-fold of each other.
Turning to `CCCC(C)Nc1nc(C)cc(NCCC(=O)Nc2ccccc2)n1` (configuration not stated), the IC50 amounted to 960 nM.
As for `Cc1ccc(CCNCC(O)c2cccc(C(F)(F)F)c2)cc1` (configuration not stated), the half-maximal inhibitory concentration (IC50) worked out at 870 nM.
`CCCCOc1ccc(C(O)C(CN2CCCCC2)c2ccccc2)cc1` (configuration not stated): the half-inhibitory concentration (IC50) is 890 nM.
Then `CCN(CCCN1CCCCC1)c1cc(C)nc(Nc2cc(Cl)cc(Cl)c2)n1`, with 290 nM; and `O=C(NC1CCCCC1)C1CCCN(C(=O)c2ccc(O)c(-c3ccc(Cl)c(Cl)c3)c2)C1` (configuration not stated), with 900 nM.
For the molecule `CCN1CCN(c2cc(C)c3cc(NC(=O)c4ccc(N(CC)CC)cc4)ccc3n2)CC1`, the IC50 was determined as 960 nM.
As to `Cc1cc(C(F)(F)F)n2nc(C(=O)N(Cc3cncn3Cc3cccc(F)c3)CC3CC3)cc2n1`, the half-maximal inhibitory concentration (IC50) stood at 740 nM.
On to `Cc1nc(-c2ccc(C#N)cc2)sc1C(=O)NCCCCN1CCC(c2ccc3c(c2OCCO)CCCC3)CC1`, for which the half-maximal inhibitory concentration (IC50) was found to be 850 nM. The IC50 values of the last two molecules are within 1.5-fold of each other.
Then `CC1(C)CCCN(C(=O)c2cccc(-n3nc(-c4ccc(Cl)cc4)cc3N)c2)C1`, with 710 nM.
On to `O=C(Nc1ccc(Cl)cc1)c1cccc(S(=O)(=O)NC2CCN(CC3CCCCC3)CC2)c1`, for which the concentration for half-maximal inhibition (IC50) is 720 nM.
`Cc1ccccc1CNc1noc(-c2c(F)cccc2Cl)n1`: the concentration for half-maximal inhibition (IC50) was 720 nM.
In the case of `CNC(=O)c1ccccc1Nc1nc(Nc2ccc(C(=O)O)cc2)ncc1Cl`, the half-maximal inhibitory concentration (IC50) amounted to 950 nM.
Consider `O=C(/C=C/c1ccc(Cl)c(Cl)c1)N1CCC(CN2CCC(c3c[nH]c4cnccc34)CC2)CC1`, for which the concentration for half-maximal inhibition (IC50) was determined as 220 nM.
In turn, `CN1CCC(C(=O)Nc2cccc(-c3ccc(-c4nc5ccccc5[nH]4)cc3)c2)CC1` showed an IC50 of 1090 nM.
Then `COc1ccc(NC(=O)/C=C/c2ccc(Cl)c(Cl)c2)cc1N1CCN(C)CC1`, with 980 nM; and `O=C(/C=C/c1ccc(Cl)c(Cl)c1)NCCCCCN1CCCN(C(=O)Nc2ccc(Cl)c(Cl)c2)CC1`, with 860 nM.
In turn, `CC(C)CCN1CCCN(Cc2cccc(NC(=O)c3ccc(-c4ccccc4)cc3)c2)CC1` gave a half-inhibitory concentration (IC50) of 890 nM.
Then `O=C(NCCCCCN1CCC(c2ccc(O)cc2)CC1)c1ccc(-c2ccccc2)cc1`, with 930 nM.
On to `CC(C)CCn1c(Sc2ccc(C#N)c([N+](=O)[O-])c2)nnc1-c1ccc(Cl)cc1`, for which the IC50 was 870 nM. The IC50 values of the last two molecules are within 1.5-fold of each other.
As to `CCCOc1ccc(-c2nonc2NC(=O)c2ccccc2OC)cc1OCCC`, the IC50 was determined as 860 nM.
In the case of `CNc1nc(NN=Cc2ccccc2Cl)nc(Nc2cccc(C(F)(F)F)c2)n1`, the concentration for half-maximal inhibition (IC50) was found to be 920 nM.
With `CC(=O)Nc1ccc(Cl)c(Cl)c1`, the concentration for half-maximal inhibition (IC50) stood at 40 nM.
`O=C(N[C@H]1CCN(CCc2ccc(O[C@H]3CCNC3)c(Cl)c2)C1)c1ccc(Cl)c(Cl)c1` returned a concentration for half-maximal inhibition (IC50) of 890 nM. This IC50 lies about 22-fold higher than the previous one.
Molecule `O=C(/C=C/c1ccccc1Cl)Nc1ccc(Br)c(OCCN2CCCCC2)c1` displayed an IC50 of 170 nM.
`COc1ccccc1Nc1nc(NC2CCN(C)CC2)cc(-c2cccc(C(F)(F)F)c2)n1` registered a half-maximal inhibitory concentration (IC50) of 920 nM.
In turn, `c1ccc(CNc2nc(NCCc3cnc[nH]3)nc(N3CCCC4CCCCC43)n2)cc1` (configuration not stated) showed an IC50 of 830 nM.
Regarding `O[C@@H](c1cccc(OCc2ccccc2)c1)[C@@H]1CN(CCc2ccccc2)CC[C@@]1(O)c1ccccc1`, the IC50 turned out to be 220 nM.
The molecule `Cc1cccc(NC(c2cccs2)c2c(NC(=O)c3ccccc3)sc(C)c2C)n1` (configuration not stated) showed a 50% inhibitory concentration (IC50) of 830 nM.
In turn, `COc1ccc2nccc([C@@H](O)CN3CCC(NC(=O)C(c4ccccc4C)N4CCC(Cc5ccccc5)CC4)CC3)c2c1` (some centres not stated) showed an IC50 of 260 nM. Compared with the last molecule, the IC50 is about 3.2-fold lower.
Then `CN1CCCC1CCOc1ccc2c(c1)N(C(=O)Nc1cc(Br)cc(C(F)(F)F)c1)CC2` (configuration not stated), with 250 nM.
For `COc1ccc(C2=CCN(c3ccc(Cl)c(Cl)c3)C2=O)cc1OCCN1CCCCC1`, the IC50 turned out to be 780 nM.
Take `COc1ccc(-c2cccc(NC(=O)c3cccc(C#N)c3)c2)cc1CN1CCCN(C)CC1`: the IC50 stood at 190 nM.
For the molecule `CC[C@H]1CN2CC[C@H]1C[C@H]2[C@H](O)c1cc(Cl)nc2ccc(OC)cc12`, the half-maximal inhibitory concentration (IC50) was 580 nM.
`C=CCC(CC=C)N1C(=O)C(c2ccccc2)(c2ccccc2)N=C1N` registered an IC50 of 660 nM.
As for `CCCc1cn2c3c(cc(C(=O)N[C@@H](Cc4ccccc4)[C@H](O)CNC4CCOCC4)cc13)N(CC)S(=O)(=O)CC2`, the half-inhibitory concentration (IC50) amounted to 100 nM.
`N#Cc1ccc(NC(=O)NC2CCN(CCCCCNC(=O)/C=C/c3ccc(Cl)c(Cl)c3)CC2)cc1` yielded a concentration for half-maximal inhibition (IC50) of 800 nM.
Molecule `Cc1cc(NC(=O)Nc2ccc(N(C)C)cc2)c2cc(Cl)ccc2n1` displayed an IC50 of 860 nM. This IC50 and that of the molecule before are within 1.5-fold of each other.
Molecule `CCN1CCN(Cc2c(O)ccc3c(=O)c(Oc4cc(C)cc(C)c4)c(C(F)(F)F)oc23)CC1` had a half-maximal inhibitory concentration (IC50) of 770 nM.
For `CCc1cccc(C)c1-n1nc(-c2cc(C(C)(C)C)oc2C)cc1N`, the IC50 was found to be 660 nM.
In turn, `CCCc1c(C(=O)Nc2ccc3c(c2)CCN(C2CCC2)CC3)cnn1-c1ccc(Cl)cc1` had a 50% inhibitory concentration (IC50) of 860 nM.
With `C[C@@H](NC(=O)NC(CCN1CCC2(CC1)CN(S(C)(=O)=O)c1ccccc12)c1ccc(Cl)c(Cl)c1)c1ccccc1` (some centres not stated) the figure was 900 nM; with `CN=C(N)c1ccc(NC(=O)Nc2ccc(C(N)=NC)cc2)cc1`, 580 nM.
The molecule `CCCCc1cc(NCc2ccncc2)nc(Nc2ccccc2)n1` displayed an IC50 of 840 nM.
`CC(C)(C)OC(=O)N1CCC(C2CCN(C(=O)OC(C)(C)C)CC2)CC1` displayed an IC50 of 1160 nM.
The molecule `Cc1cc2cc(NC(=O)Nc3ccnc4ccccc34)ccc2n1C` returned an IC50 of 1090 nM.
With `CCN1CCC(NCc2ccc(-c3ccc(Cl)cc3)cc2)CC1` the figure was 1020 nM.
`Cc1cccc2[nH]c(-c3cccc(-c4cccc(NC(=O)c5ccoc5)c4)c3)nc12` yielded an IC50 of 220 nM. This IC50 is about 4.6-fold lower than that of the molecule before.
Molecule `CCN1CCN(CCCNc2c3ccccc3nc3ccccc23)CC1` registered a half-maximal inhibitory concentration (IC50) of 800 nM. Against the preceding molecule, the IC50 is about 3.6-fold higher.
`COc1ccc2ncc(C#N)c(CCN3C[C@H](CNCc4ccccc4)[C@H](O)C3)c2n1` showed a half-inhibitory concentration (IC50) of 1060 nM.
Turning to `O=C(c1csc(-c2cccnc2)n1)N1CCc2cc3nccc(N4CCN5CCC[C@H]5C4)c3cc21`, the half-maximal inhibitory concentration (IC50) was determined as 700 nM.
For `O=C(Nc1cccc(C(F)(F)F)c1)N1CCOC(CCN2CCC(c3ccccc3)CC2)(c2ccc(Cl)c(Cl)c2)C1` (configuration not stated), the half-maximal inhibitory concentration (IC50) was found to be 1110 nM.
With `Cc1cc(C(=O)CN2C(=O)NC(C)(c3cccc4ccccc34)C2=O)c(C)n1Cc1ccco1` (configuration not stated) the figure was 630 nM.
`O=C(NCc1ccco1)c1ccc(S(=O)(=O)c2ccc(Cl)cc2)cc1` returned a 50% inhibitory concentration (IC50) of 450 nM.

The term IC50 denotes the concentration that gives 50% inhibition.
